“Also recorded” adds a separate entry of the source.
How the values were obtained:
[1] = test system: 2F–2B ECs; type: cell-based, murine
Procedure: The murine 2F–2B endothelial cell line (ATCC) was transiently transfected as described elsewhere (Soares et al., Nature Med. 4:1073, 1998; Brouard et al, J. Exp. Med. 192:1015, 2000). All experiments were conducted 24–48 h after transfection. é-galactosidase-transfected cells were detected as described elsewhere (Soares et al., Nature Med. 4:1073, 1998; Brouard et al., J. Exp. Med. 192:1015, 2000). Percentage of viable cells was assessed by evaluating the number of é-galactosidase-expressing cells that retained normal morphology as described elsewhere (Soares et al., Nature Med. 4:1073, 1998; Brouard et al., J. Exp. Med. 192:1015, 2000). The number of random fields counted was determined to have a minimum of 200 viable transfected cells per control well. The percentage of viable cells was normalized for each DNA preparation to the number of transfected cells counted in the absence of the apoptosis-inducing agent (100% viability). All experiments were performed at least three times in duplicate. Actinomycin D (Act. D; Sigma) was dissolved in PBS and added to the culture medium (10 îg/ml) 24 h after transfection. SnPPIX (Porphyrin Products) was dissolved (10 îM) in 100 mM NaOH and conserved at −20° C. until used. SNPPIX was added to the culture medium (50 îM) 6 h after transfection. Human recombinant TNF-α (R&D Systems, Minneapolis, Minn.) was dissolved in PBS, 1% BSA, and added to the culture medium (10–100 ng/ml) 24 h after transfection.
Cells were exposed to compressed air or varying concentration of CO (250 and 10,000 ppm), as described elsewhere (Otterbein et al., Nature Med. 6:422, 2000; and Brouard et al., J. Exp. Med. 192:1015, 2000).
BAECs and 2F–2B ECs were transiently transfected. All experiments were carried out 24–48 h after transfection. The percentage of viable cells was assessed by evaluating the number of β-galactosidase-expressing cells that retained normal morphology. The number of random fields counted was determined to have a minimum of 200 viable transfected cells per control well. The percentage of viable cells was normalized for each DNA preparation to the number of transfected cells counted in the absence of the apoptosis-inducing agent (100% viability). All experiments were performed at least three times in duplicate.
Actinomycin D (Act.D; Sigma-Aldrich) was dissolved in PBS and added to the culture medium 24 h after transfection. The Act.D concentration used corresponded to the optimal concentration necessary to sensitize ECs to TNF-α mediated apoptosis, e.g., 10 μg/ml for 2F–2B ECs and 0.1 μg/ml for BAECs. When indicated, EC apoptosis was induced by etoposide (200 μM, 8 h; Calbiochem-Novabiochem) or by serum deprivation (0.1% FCS for 24 h). The iron chelator deferoxamine mesylate (DFO; Sigma-Aldrich) was dissolved in water and added to culture medium (1–100 μM) 1 h before the induction of apoptosis. Hemoglobin (Hb; Sigma-Aldrich) was dissolved (1 mM) in PBS, 10 mM Na2S2O4, dialyzed against PBS (2 h, 4° C., 1:800 dilution), and added to the culture medium (1–100 μM) 6 h after transfection. The guanylcyclase inhibitor 1H(1,2,4)oxadiazolo(4,3)quinoxalin-1 (ODQ; Calbiochem-Novabiochem) was dissolved in DMSO (Sigma-Aldrich) and added to the culture medium (10–100 μM) 6 h after transfection. Iron protoporphyrin ([FePP]/heme), cobalt protoporphyrin (CoPPIX), and tin protoporphyrin (SnPPIX; all from Porphyrin Products, Inc.) were dissolved (10 mM) in 100 mM NaOH and held at −20° C. until use. Metalloporphyrins were added to the culture medium (50 μM) 6 h after transfection. The cGMP analogue 8-bromo-cGMP sodium salt (8-Br-cGMP; Sigma-Aldrich) was dissolved in water and added to the culture medium (10–100 µM) 30 min before the induction of apoptosis. Human recombinant TNF- (R&D Systems) was dissolved in PBS and 1% BSA, and added to the culture medium (10–100 ng/ml) 24 h after transfection.
Cells were exposed to compressed air from a compressed air tank or varying concentrations of CO (250 and 10,000 ppm).

[2] = test system: mouse hearts transplanted into rats; test: Immunohistology of cardiac grafts (thrombosis, apoptosis); type: in vivo, BALB/c mouse hearts, Lewis rats; conditions: for vascular thrombosis in graft: 3 days after transplantation
Procedure: Grafts were harvested 3 days after transplantation, snap-frozen in liquid nitrogen, and stored at −80° C. Cryostat sections were fixed and stained as described previously (Soares et al, Nature Med. 4:1073, 1998). Rat leukocyte populations were analyzed by using anti-rat leukocyte common Ag (LCA, CD45; OX-1), Éé TCR (TCRÉé-chains; R73), B cell (CD45RB; OX-33), NK cell (NKR-P1; 3.2.3), and MΦ (CD68; ED-1), mAbs (Serotec, Harlan Bioproducts for Science, Indianapolis, Ind.). Detection of fibrin/fibrinogen was conducted by using a rabbit anti-human fibrin/fibrinogen polyclonal Ab (Dako, Carpinteria, Calif.). Intragraft complement activation was detected by using an anti-rat Clq (The Binding Site, Birmigham, U. K.), C3 (ED11; Serotec), or C5b-9 mAb (Dako). Rat IgM was detected by using the mouse anti-rat IgM mAb MARM-4 (a kind gift of Dr. H. Bazin, University of Louvain, Brussels, Belgium). Isotype-matched mAbs or purified Ig, as well as a control for residual endogenous peroxidase activity, were included in each experiment. Detection of apoptosis was carried out by using ApopTagO in situ apoptosis detection kit (Oncor, Gaithersburg, Md.) according to the manufacturer's instructions.
Mouse hearts were transplanted into CVF plus CsA-treated rats. SnPPIX or FePPIX was administered and graft recipients were exposed to CO (250–400 ppm). Grafts were harvested 3 days after transplantation (n=3 per group) and stained for rat IgM, rat and mouse complement C1q, rat and mouse P-selectin, rat and mouse fibrin/fibrinogen, and rat CD45 expressing leukocytes. […] HO-2, HO-1, and ferritin were detected in graft endothelial and smooth muscle cells as well as in cardiac myocytes (data not shown). There was only minimal vascular thrombosis or infiltration by host leukocytes usually associated with focal areas of infarction (data not shown). There was low but detectable P-selectin expression on the vascular endothelium (data not shown). […] Thrombi were consistently observed in large coronary vessels at the base of the heart. There were no detectable P-selectin-expressing platelet aggregates in the microvasculature (data not shown). There was extensive graft infiltration by host neutrophils as well as by CD45^++ leukocytes expressing the monocyte/MΦ marker CD68/ED-1 and MHC class II Ags (data not shown). Infiltrating monocyte/MΦ were found near arterioles and scattered throughout the myocardium, associated with areas of infarction.

[3] = rats treated with SnPPIX or FePPIX

Nc1nc2c(nc(Br)n2[C@@H]2O[C@@H]3COP(=O)(O)O[C@H]3[C@H]2O)c(=O)[nH]1 [8-Br-cGMP, 8-bromoguanosine-3′-5′-cyclic-monophosphate]
effect on EC apoptosis ([1]; 8-Br-cGMP): failed to suppress EC apoptosis

[C-]#[O+] [CO, carbon monoxide]
effect on EC apoptosis under inhibition of HO activity by SnPPIX ([1]; CO 250 ppm): did not suppress EC apoptosis significantly
effect on TNF-α mediated apoptosis of control ECs (pcDNA3) ([1]; exogenous CO 10,000 ppm): TNF-α mediated apoptosis was suppressed
vascular thrombosis in graft ([2]; SnPPIX-treated rats exposed to CO 250–400 ppm): no signs of vascular thrombosis
apoptosis in transplanted mouse hearts ([2]; rats treated with SnPPIX and exposed to CO): Apoptosis did not occur

C=CC1=C(C)c2cc3[n-]c(cc4[n-]c(cc5nc(cc1n2)C(C)=C5C=C)c(C)c4CCC(=O)O)c(CCC(=O)O)c3C.[Fe+2] [FePPIX, iron protoporphyrin]
concentrations at which heme becomes cytotoxic ([1]; 2F–2B ECs): higher than 10 μM
heme concentrations at which the protective effect from TNF-α plus Act.D-mediated apoptosis was observed ([1]; 2F–2B ECs): 5 to 7 µM
effect on EC apoptosis when CO was scavenged by Hb ([1]; FePP 6.25 μM, Hb 50 μM): no longer able to suppress EC apoptosis
apoptosis in transplanted mouse hearts [2, 3]: Apoptosis did not occur

O=c1onc2cnc3ccccc3n12 [ODQ, 1H[1,2,4]oxadiazolo[4,3-α]quinoxalin-1]
effect on the antiapoptotic effects of HO-1 ([1]; ODQ 10–100 μM): did not suppress the antiapoptotic effects of HO-1

C=Cc1c2[n-]c(c1C)/C=c1\[n-]/c(c(C)c1C=C)=C\c1[n-]c(c(CCC(=O)O)c1C)C=c1[n-]/c(c(C)c1CCC(=O)O)=C\2.[Sn+4] [SnPPIX, tin protoporphyrin IX]
effect of protoporphyrin on the antiapoptotic effect of HO-1 ([1]; HO-1 transfected ECs, protoporphyrin 50 μM): blocked the antiapoptotic effect of HO-1; also recorded: HO-1 was no longer able to prevent EC apoptosis
vascular thrombosis in graft ([2]; CVF plus CsA-treated rats, SnPPIX): widespread vascular thrombosis of large coronary vessels
apoptosis in transplanted mouse hearts [2, 3]: widespread apoptosis of endothelial cells and cardiac myocytes
